Our source for the Cell survival values is ChEMBL document CHEMBL1148263, “Solid-phase synthesis of kojic acid-tripeptides and their tyrosinase inhibitory activity, storage stability, and toxicity” (Bioorg Med Chem Lett, 2004).

Holding throughout (type): functional, Mus musculus
Assay [1] can be described thus: Cytotoxicity of compound against Melan-a cells determined as percent cell survival at 100 ppm.
Assay [2] in a line: Cytotoxicity of compound against Melan-a cells determined as percent cell survival at 10 ppm.
A short description of assay [3]: Cytotoxicity of compound against Melan-a cells determined as percent cell survival at 1 ppm.

As to `O=C(N[C@@H](Cc1ccccc1)C(=O)N[C@@H](Cc1c[nH]c2ccccc12)C(=O)N[C@@H](Cc1ccc(O)cc1)C(=O)O)OCc1cc(=O)c(O)co1`, the Cell survival in assay [1] is given as 128.08%; in assay [2], 128.73%; in assay [3] it was 125.51%.
For `O=c1cc(CO)occ1O` [KOJIC ACID] the same measures were 86.92%, 92.36% and 91.75%.
For `NCCCC[C@H](NC(=O)OCc1cc(=O)c(O)co1)C(=O)N[C@@H](CCC(=O)O)C(=O)N[C@@H](Cc1ccc(O)cc1)C(=O)O` the same measures were 100.81%, 98.78% and 98.38%.
Take `O=C(N[C@@H](Cc1ccccc1)C(=O)N[C@@H](Cc1ccccc1)C(=O)N[C@@H](Cc1ccc(O)cc1)C(=O)O)OCc1cc(=O)c(O)co1`: the Cell survival turned out to be 104.36% in assay [1], 94.66% in assay [2] and 91.62% in assay [3].
On to `O=C(N[C@@H](Cc1ccccc1)C(=O)N[C@@H](Cc1ccc(O)cc1)C(=O)N[C@@H](Cc1ccc(O)cc1)C(=O)O)OCc1cc(=O)c(O)co1`, for which the Cell survival in assay [1] was 124.4%; in assay [2] it was 128.62%; in assay [3], 124.4%.
